Laboratory results: US9113629B2, “4-amino-6-(4-substituted-phenyl)-picolinates and 6-amino-2-(4-substituted-phenyl)-pyrimidine-4-carboxylates and their use as herbicides” (DOW AGROSCIENCES LLC, priority 2013, dated 2015)
Like-named read-outs stand apart in the source and are kept apart here.

Assays:
[1] = test system: Key Grass and Sedge Weeds as well as Grass Crops; assay: Post-emergent Test II herbicidal activity (Table 6); type: in vivo; details: post-emergence, 336 h; for pest or weed control at 70 g/ha: 70 g ai/ha; for pest or weed control at 140 g/ha: 140 g ai/ha
Procedure, shortened: (§1)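 Compounds, dissolved in 97:3 acetone/DMSO and diluted into an aqueous carrier containing crop oil concentrate and Triton X-155, are applied over the top of young plants at 187 L/ha. Injury is scored visually at 14 d, 0% meaning no effect and 100% complete kill.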

[2] = test system: Key Broadleaf Weed and Crop Species; assay: Post-emergent Test II herbicidal activity (Table 5); type: in vivo; details: post-emergence, 336 h, 14 days after application; for pest or weed control at 70 g/ha: application rate 70 g ai/ha; for pest or weed control at 140 g/ha: application rate 140 g ai/ha
Procedure, shortened: as §1

[3] = CYPES: yellow nutsedge (Cyperus esculentus), read-out: Visual Growth Reduction (%) 14 Days After Application, CYPES
[4] = DIGSA: crabgrass (Digitaria sanguinalis), read-out: Visual Growth Reduction (%) 14 Days After Application, DIGSA
[5] = ECHCG: barnyardgrass (Echinochloa crus-galli), read-out: Visual Growth Reduction (%) 14 Days After Application, ECHCG
[6] = ORYSA: rice (Oryza sativa), crop, read-out: Visual Growth Reduction (%) 14 Days After Application, ORYSA
[7] = SETFA: giant foxtail (Setaria faberi), read-out: Visual Growth Reduction (%) 14 Days After Application, SETFA
[8] = SORVU: grain sorghum (Sorghum vulgare), read-out: Visual Growth Reduction (%) 14 Days After Application, SORVU
[9] = TRZSS (wheat, Triticum aestivum), crop, read-out: Visual Growth Reduction (%) 14 Days After Application, TRZSS
[10] = ZEAMX: maize, corn (Zea mays), crop, read-out: Visual Growth Reduction (%) 14 Days After Application, ZEAMX
[11] = ABUTH: velvetleaf (Abutilon theophrasti), read-out: Visual Growth Reduction (%) 14 Days After Application, ABUTH
[12] = AMARE: redroot pigweed (Amaranthus retroflexus), read-out: Visual Growth Reduction (%) 14 Days After Application, AMARE
[13] = BRSNN: oilseed-rape, canola (Brassica napus), read-out: Visual Growth Reduction (%) 14 Days After Application, BRSNN
[14] = CHEAL: lambsquarters (Chenopodium album), read-out: Visual Growth Reduction (%) 14 Days After Application, CHEAL
[15] = EPHHL: wild poinsettia (Euphorbia heterophylla), read-out: Visual Growth Reduction (%) 14 Days After Application, EPHHL
[16] = HELAN: sunflower (Helianthus annuus), read-out: Visual Growth Reduction (%) 14 Days After Application, HELAN
[17] = VIOTR: wild pansy (Viola tricolor), read-out: Visual Growth Reduction (%) 14 Days After Application, VIOTR

melting point [°C] | Compound | pest or weed control at 70 g/ha [1, 3] [%] | pest or weed control at 140 g/ha [1, 3] [%] | pest or weed control at 70 g/ha [1, 4] [%] | pest or weed control at 140 g/ha [1, 4] [%] | pest or weed control at 70 g/ha [1, 5] [%] | pest or weed control at 140 g/ha [1, 5] [%] | pest or weed control at 70 g/ha [1, 6] [%] | pest or weed control at 140 g/ha [1, 6] [%] | pest or weed control at 70 g/ha [1, 7] [%] | pest or weed control at 140 g/ha [1, 7] [%] | pest or weed control at 70 g/ha [1, 8] [%] | pest or weed control at 140 g/ha [1, 8] [%] | pest or weed control at 70 g/ha [1, 9] [%] | pest or weed control at 140 g/ha [1, 9] [%] | pest or weed control at 70 g/ha [1, 10] [%] | pest or weed control at 140 g/ha [1, 10] [%] | pest or weed control at 70 g/ha [2, 11] [%] | pest or weed control at 140 g/ha [2, 11] [%] | pest or weed control at 70 g/ha [2, 12] [%] | also measured
167 to 168 | COC(=O)c1nc(-c2ccc(C)c(F)c2F)c(F)c(N)c1Cl [Compound 211] | 45 to 59 | 60 to 74 | 0 to 29 | 0 to 29 | 45 to 59 | 85 to 94 | 0 to 29 | 0 to 29 | 45 to 59 | 60 to 74 | 0 to 29 | 30 to 44 | 0 to 29 | 0 to 29 | 30 to 44 | 45 to 59 | 95 to 100 | 95 to 100 | 95 to 100 | pest or weed control at 140 g/ha [2, 12]: 95 to 100%; pest or weed control at 70 g/ha [2, 13]: 60 to 74%; pest or weed control at 140 g/ha [2, 13]: 85 to 94%; pest or weed control at 70 g/ha [2, 14]: 95 to 100%; pest or weed control at 140 g/ha [2, 14]: 95 to 100%; pest or weed control at 70 g/ha [2, 15]: 95 to 100%; pest or weed control at 140 g/ha [2, 15]: 95 to 100%; pest or weed control at 70 g/ha [2, 16]: 95 to 100%; pest or weed control at 140 g/ha [2, 16]: 95 to 100%; pest or weed control at 70 g/ha [2, 17]: 0 to 29%; pest or weed control at 140 g/ha [2, 17]: 0 to 29%
127 to 130 | C#Cc1ccc(-c2nc(C(=O)OC)c(Cl)c(N)c2F)cc1 [Compound 7, methyl 4-amino-3-chloro-6-(4-ethynylphenyl)-5-fluoropicolinate] | 75 to 84 | 85 to 94 | 75 to 84 | 85 to 94 | 75 to 84 | 95 to 100 | 0 to 29 | 0 to 29 | 60 to 74 | 95 to 100 | 85 to 94 | 85 to 94 | 30 to 44 | 45 to 59 | 95 to 100 | 95 to 100 | 95 to 100 | 95 to 100 | 95 to 100 | pest or weed control at 140 g/ha [2, 12]: 95 to 100%; pest or weed control at 70 g/ha [2, 13]: 85 to 94%; pest or weed control at 140 g/ha [2, 13]: 85 to 94%; pest or weed control at 70 g/ha [2, 14]: 95 to 100%; pest or weed control at 140 g/ha [2, 14]: 95 to 100%; pest or weed control at 70 g/ha [2, 15]: 85 to 94%; pest or weed control at 140 g/ha [2, 15]: 95 to 100%; pest or weed control at 70 g/ha [2, 16]: 85 to 94%; pest or weed control at 140 g/ha [2, 16]: 95 to 100%; pest or weed control at 70 g/ha [2, 17]: 0 to 29%; pest or weed control at 140 g/ha [2, 17]: 0 to 29%
